Test results from PubChem BioAssay (NCI).
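How tested: cells in 96-well plates exposed to compound for 48 hours at five concentrations. At the TGI there is no net growth.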

Assays:
Assay in all cases: NCI tumour cell line growth inhibition, 48 h
786-0 renal = test system: 786-0 renal
A498 renal = test system: A498 renal
A549 NSCLC = test system: A549 NSCLC
ACHN renal = test system: ACHN renal
BT-549 breast = test system: BT-549 breast
CAKI-1 renal = test system: CAKI-1 renal
CCRF-CEM leukemia = test system: CCRF-CEM leukemia
COLO 205 colon = test system: COLO 205 colon
DU-145 prostate = test system: DU-145 prostate
EKVX NSCLC = test system: EKVX NSCLC
HCC-2998 colon = test system: HCC-2998 colon
HCT-116 colon = test system: HCT-116 colon
HL-60(TB) leukemia = test system: HL-60(TB) leukemia
HOP-62 NSCLC = test system: HOP-62 NSCLC
HOP-92 NSCLC = test system: HOP-92 NSCLC
HS 578T breast = test system: HS 578T breast
HT29 colon = test system: HT29 colon
IGROV1 ovarian = test system: IGROV1 ovarian
K-562 leukemia = test system: K-562 leukemia
KM12 colon = test system: KM12 colon
LOX IMVI melanoma = test system: LOX IMVI melanoma
MCF7 breast = test system: MCF7 breast
MDA-MB-435 = test system: MDA-MB-435
MDA-N = test system: MDA-N
MOLT-4 leukemia = test system: MOLT-4 leukemia
NCI-H226 lung = test system: NCI-H226 lung
NCI-H460 lung = test system: NCI-H460 lung
NCI-H522 lung = test system: NCI-H522 lung
NCI/ADR-RES ovarian = test system: NCI/ADR-RES ovarian
OVCAR-3 ovarian = test system: OVCAR-3 ovarian
OVCAR-4 ovarian = test system: OVCAR-4 ovarian
OVCAR-5 ovarian = test system: OVCAR-5 ovarian
OVCAR-8 ovarian = test system: OVCAR-8 ovarian
PC-3 prostate = test system: PC-3 prostate
RPMI-8226 leukemia = test system: RPMI-8226 leukemia
RXF 393 renal = test system: RXF 393 renal
SF-295 CNS = test system: SF-295 CNS
SF-539 CNS = test system: SF-539 CNS
SK-MEL-2 melanoma = test system: SK-MEL-2 melanoma
SK-MEL-28 melanoma = test system: SK-MEL-28 melanoma
SK-MEL-5 melanoma = test system: SK-MEL-5 melanoma
SK-OV-3 ovarian = test system: SK-OV-3 ovarian
SNB-19 CNS = test system: SNB-19 CNS
SNB-75 CNS = test system: SNB-75 CNS
SR leukemia = test system: SR leukemia
SW-620 colon = test system: SW-620 colon
T-47D breast = test system: T-47D breast
TK-10 renal = test system: TK-10 renal
U251 CNS = test system: U251 CNS
UACC-257 melanoma = test system: UACC-257 melanoma
UACC-62 melanoma = test system: UACC-62 melanoma
UO-31 renal = test system: UO-31 renal
HCT-15 colon = test system: HCT-15 colon
M14 melanoma = test system: M14 melanoma
MALME-3M melanoma = test system: MALME-3M melanoma
NCI-H23 lung = test system: NCI-H23 lung
SF-268 CNS = test system: SF-268 CNS
SN12C renal = test system: SN12C renal
MDA-MB-231 breast = test system: MDA-MB-231 breast

## CC(C)(CNC(=O)/C(Cl)=C(/Cl)C(=O)O)CNC(=O)/C(Cl)=C(/Cl)C(=O)O
786-0 renal
  TGI: > 100 µM
A498 renal
  TGI: > 100 µM
A549 NSCLC
  TGI: > 100 µM
ACHN renal
  TGI: 60.3 µM
BT-549 breast
  TGI: > 100 µM
CAKI-1 renal
  TGI: > 100 µM
CCRF-CEM leukemia
  TGI: > 100 µM
COLO 205 colon
  TGI: 35.6 µM
DU-145 prostate
  TGI: > 100 µM
EKVX NSCLC
  TGI: > 100 µM
HCC-2998 colon
  TGI: > 100 µM
HCT-116 colon
  TGI: > 100 µM
HL-60(TB) leukemia
  TGI: > 100 µM
HOP-62 NSCLC
  TGI: > 100 µM
HOP-92 NSCLC
  TGI: > 100 µM
HS 578T breast
  TGI: > 100 µM
HT29 colon
  TGI: > 100 µM
IGROV1 ovarian
  TGI: > 100 µM
K-562 leukemia
  TGI: > 100 µM
KM12 colon
  TGI: > 100 µM
LOX IMVI melanoma
  TGI: > 100 µM
MCF7 breast
  TGI: > 100 µM
MDA-MB-435
  TGI: > 100 µM
MDA-N
  TGI: > 100 µM
MOLT-4 leukemia
  TGI: > 100 µM
NCI-H226 lung
  TGI: > 100 µM
NCI-H460 lung
  TGI: > 100 µM
NCI-H522 lung
  TGI: > 100 µM
NCI/ADR-RES ovarian
  TGI: > 100 µM
OVCAR-3 ovarian
  TGI: > 100 µM
OVCAR-4 ovarian
  TGI: > 100 µM
OVCAR-5 ovarian
  TGI: > 100 µM
OVCAR-8 ovarian
  TGI: > 100 µM
PC-3 prostate
  TGI: > 100 µM
RPMI-8226 leukemia
  TGI: 76.3 µM
RXF 393 renal
  TGI: > 100 µM
SF-295 CNS
  TGI: > 100 µM
SF-539 CNS
  TGI: > 100 µM
SK-MEL-2 melanoma
  TGI: > 100 µM
SK-MEL-28 melanoma
  TGI: > 100 µM
SK-MEL-5 melanoma
  TGI: > 100 µM
SK-OV-3 ovarian
  TGI: > 100 µM
SNB-19 CNS
  TGI: > 100 µM
SNB-75 CNS
  TGI: > 100 µM
SR leukemia
  TGI: > 100 µM
SW-620 colon
  TGI: > 100 µM
T-47D breast
  TGI: > 100 µM
TK-10 renal
  TGI: > 100 µM
U251 CNS
  TGI: > 100 µM
UACC-257 melanoma
  TGI: > 100 µM
UACC-62 melanoma
  TGI: > 100 µM
UO-31 renal
  TGI: > 100 µM

## CCC(=O)Nc1ccc(NCC(=O)Nc2ccc(Cl)cc2)cc1
786-0 renal
  TGI: 35.7 µM
A498 renal
  TGI: 46 µM
A549 NSCLC
  TGI: 56.5 µM
ACHN renal
  TGI: 27.9 µM
BT-549 breast
  TGI: 48.6 µM
CAKI-1 renal
  TGI: 53.7 µM
CCRF-CEM leukemia
  TGI: 60.3 µM
COLO 205 colon
  TGI: 35.5 µM
DU-145 prostate
  TGI: 35.6 µM
EKVX NSCLC
  TGI: 28.2 µM
HCC-2998 colon
  TGI: 26.7 µM
HCT-116 colon
  TGI: 30.4 µM
HCT-15 colon
  TGI: 36.4 µM
HL-60(TB) leukemia
  TGI: 42.7 µM
HOP-62 NSCLC
  TGI: 30.7 µM
HOP-92 NSCLC
  TGI: 33.4 µM
HS 578T breast
  TGI: > 100 µM
HT29 colon
  TGI: 28 µM
IGROV1 ovarian
  TGI: 64.4 µM
K-562 leukemia
  TGI: > 100 µM
KM12 colon
  TGI: 33 µM
LOX IMVI melanoma
  TGI: 27.4 µM
M14 melanoma
  TGI: 29.3 µM
MALME-3M melanoma
  TGI: 34.8 µM
MCF7 breast
  TGI: 29.8 µM
MDA-MB-435
  TGI: 33.2 µM
MDA-N
  TGI: 35.3 µM
MOLT-4 leukemia
  TGI: 98.2 µM
NCI-H226 lung
  TGI: 53.5 µM
NCI-H23 lung
  TGI: 38.9 µM
NCI-H522 lung
  TGI: 30.2 µM
NCI/ADR-RES ovarian
  TGI: 93.6 µM
OVCAR-3 ovarian
  TGI: 33.6 µM
OVCAR-4 ovarian
  TGI: 33.3 µM
OVCAR-5 ovarian
  TGI: 32.1 µM
OVCAR-8 ovarian
  TGI: 94.4 µM
PC-3 prostate
  TGI: 31.8 µM
RPMI-8226 leukemia
  TGI: 70.3 µM
RXF 393 renal
  TGI: 35.6 µM
SF-268 CNS
  TGI: 55.4 µM
SF-295 CNS
  TGI: > 100 µM
SF-539 CNS
  TGI: 36.8 µM
SK-MEL-2 melanoma
  TGI: 30.8 µM
SK-MEL-28 melanoma
  TGI: 42.6 µM
SK-MEL-5 melanoma
  TGI: 30.7 µM
SK-OV-3 ovarian
  TGI: 64.1 µM
SN12C renal
  TGI: 35.3 µM
SNB-19 CNS
  TGI: 42 µM
SNB-75 CNS
  TGI: 64.6 µM
SR leukemia
  TGI: 94.1 µM
SW-620 colon
  TGI: 74.9 µM
T-47D breast
  TGI: 29.8 µM
UACC-257 melanoma
  TGI: 36.8 µM
UACC-62 melanoma
  TGI: 26.6 µM
UO-31 renal
  TGI: 78.9 µM

## CCn1c(O)c(C=Nc2ccccc2)s/c1=N/Nc1ncc(CC(=O)Nc2ccccc2C)s1
786-0 renal
  TGI: > 100 µM
A498 renal
  TGI: > 100 µM
A549 NSCLC
  TGI: > 100 µM
ACHN renal
  TGI: > 100 µM
CAKI-1 renal
  TGI: > 100 µM
CCRF-CEM leukemia
  TGI: > 100 µM
COLO 205 colon
  TGI: > 100 µM
DU-145 prostate
  TGI: > 100 µM
EKVX NSCLC
  TGI: > 100 µM
HCC-2998 colon
  TGI: > 100 µM
HCT-116 colon
  TGI: > 100 µM
HCT-15 colon
  TGI: > 100 µM
HL-60(TB) leukemia
  TGI: > 100 µM
HOP-62 NSCLC
  TGI: > 100 µM
HOP-92 NSCLC
  TGI: > 100 µM
HS 578T breast
  TGI: > 100 µM
HT29 colon
  TGI: > 100 µM
IGROV1 ovarian
  TGI: > 100 µM
K-562 leukemia
  TGI: > 100 µM
KM12 colon
  TGI: > 100 µM
LOX IMVI melanoma
  TGI: > 100 µM
M14 melanoma
  TGI: > 100 µM
MALME-3M melanoma
  TGI: > 100 µM
MCF7 breast
  TGI: > 100 µM
MDA-MB-231 breast
  TGI: > 100 µM
MDA-MB-435
  TGI: > 100 µM
MDA-N
  TGI: > 100 µM
MOLT-4 leukemia
  TGI: > 100 µM
NCI-H226 lung
  TGI: > 100 µM
NCI-H23 lung
  TGI: > 100 µM
NCI-H460 lung
  TGI: > 100 µM
NCI-H522 lung
  TGI: > 100 µM
NCI/ADR-RES ovarian
  TGI: > 100 µM
OVCAR-3 ovarian
  TGI: > 100 µM
OVCAR-4 ovarian
  TGI: > 100 µM
OVCAR-5 ovarian
  TGI: > 100 µM
OVCAR-8 ovarian
  TGI: > 100 µM
PC-3 prostate
  TGI: > 100 µM
RPMI-8226 leukemia
  TGI: > 100 µM
RXF 393 renal
  TGI: > 100 µM
SF-268 CNS
  TGI: > 100 µM
SF-295 CNS
  TGI: > 100 µM
SF-539 CNS
  TGI: > 100 µM
SK-MEL-2 melanoma
  TGI: > 100 µM
SK-MEL-28 melanoma
  TGI: > 100 µM
SK-MEL-5 melanoma
  TGI: > 100 µM
SK-OV-3 ovarian
  TGI: > 100 µM
SN12C renal
  TGI: > 100 µM
SNB-19 CNS
  TGI: > 100 µM
SNB-75 CNS
  TGI: > 100 µM
SR leukemia
  TGI: > 100 µM
SW-620 colon
  TGI: > 100 µM
T-47D breast
  TGI: > 100 µM
TK-10 renal
  TGI: > 100 µM
U251 CNS
  TGI: > 100 µM
UACC-257 melanoma
  TGI: > 100 µM
UACC-62 melanoma
  TGI: > 100 µM
UO-31 renal
  TGI: > 100 µM
